Laboratory results as given in ChEMBL document CHEMBL1201862, “PubChem BioAssay data set” (2004).
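The compound was tested at five concentrations on cells cultured in 96-well plates, with a 48-hour exposure period. GI50 = concentration required for 50% inhibition of growth.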 The source made the active and inactive calls. Rule as the data show it: active = GI50 up to about 1.1 µM and inactive = higher.

What was measured:
Experiment in all cases: DTP human tumour cell line panel, 48 h
[1] = tested on: RPMI-8226
[2] = tested on: MDA-MB-435
[3] = tested on: HCC 2998
[4] = tested on: SK-OV-3
[5] = tested on: SF-268
[6] = tested on: A498
[7] = tested on: SF-539
[8] = tested on: HOP-92
[9] = tested on: A549
[10] = tested on: MDA-N
[11] = tested on: SK-MEL-28
[12] = tested on: LOX IMVI
[13] = tested on: UACC-257
[14] = tested on: MOLT-4
[15] = tested on: RXF 393
[16] = tested on: SNB-75
[17] = tested on: SW-620
[18] = tested on: HOP-62
[19] = tested on: NCI-H226
[20] = tested on: COLO 205
[21] = tested on: HCT-15
[22] = tested on: MDA-MB-231
[23] = tested on: BT-549
[24] = tested on: UACC-62
[25] = tested on: ACHN
[26] = tested on: SK-MEL-5
[27] = tested on: OVCAR-4
[28] = tested on: 786-0
[29] = tested on: SN12C
[30] = tested on: NCI-H23
[31] = tested on: SR
[32] = tested on: K562
[33] = tested on: NCI-H522
[34] = tested on: SK-MEL-2
[35] = tested on: MCF7
[36] = tested on: CAKI-1
[37] = tested on: DU-145
[38] = tested on: HCT-116
[39] = tested on: HT-29
[40] = tested on: Malme-3M
[41] = tested on: KM12
[42] = tested on: TK-10
[43] = tested on: HL-60
[44] = tested on: CCRF-CEM
[45] = tested on: SNB-19
[46] = tested on: SF-295
[47] = tested on: NCI/ADR-RES
[48] = tested on: Hs-578T
[49] = tested on: OVCAR-8
[50] = tested on: PC-3
[51] = tested on: M14
[52] = tested on: U-251
[53] = tested on: OVCAR-3
[54] = tested on: NCI-H460
[55] = tested on: EKVX
[56] = tested on: IGROV-1
[57] = tested on: OVCAR-5

Measured: GI50

Cc1ccc2c(=O)cc(-c3cccc(F)c3)[nH]c2n1
inactive: [27] 1610 nM | [42] 1940 nM
38.1 nM: [21]
active: [1] 39.7 nM | [2] 11.1 nM | [3] 58.6 nM | [4] 40.3 nM | [5] 67.8 nM | [6] 52 nM | [7] 72.8 nM | [8] 900 nM | [9] 47.6 nM | [10] < 12 nM | [11] 640 nM | [12] 51.8 nM | [13] 39.5 nM | [14] 54.2 nM | [15] 41.5 nM | [16] 21.8 nM | [17] 25.1 nM | [18] 65.5 nM | [19] 33.6 nM | [20] 22.4 nM | [22] 84.5 nM | [23] 34.8 nM | [24] 46.1 nM | [25] 51.4 nM | [26] 20.6 nM | [28] 44.6 nM | [29] 74.6 nM | [30] 50.1 nM | [31] 22.4 nM | [32] 31.3 nM | [33] 18.8 nM | [34] 39.8 nM | [35] 33.4 nM | [36] 49.8 nM | [37] 50.4 nM | [38] 40.6 nM | [39] 35.9 nM | [40] 37.9 nM | [41] 22 nM | [43] 21.2 nM | [44] 44.6 nM | [45] 153 nM | [46] 32.1 nM | [47] 19.6 nM | [48] 23.7 nM | [49] 63.8 nM | [50] 32.7 nM | [51] 36.1 nM | [52] 38.9 nM | [53] 20.1 nM | [54] 35.6 nM | [55] 71.9 nM | [56] 75.5 nM | [57] 56.4 nM
